Results on 8 compounds are retold here after PubChem BioAssay (NCI).

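The compound was tested at five concentrations on cells cultured in 96-well plates, with a 48-hour exposure period. TGI: total growth inhibition.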

What all share (experiment): NCI tumour cell line growth inhibition, 48 h
In assay [1] the test system is SK-MEL-2 melanoma.
For assay [2], the system named is BT-549 breast.
Assay [3] relates to SK-OV-3 ovarian.
In assay [4] the test system is A498 renal.
The subject of assay [5] is HL-60(TB) leukemia.
Assay [6] relates to K-562 leukemia.
Assay [7] has as its system MCF7 breast.
Assay [8] concerns SN12C renal.
Assay [9] relates to HCC-2998 colon.
In assay [10] the test system is UACC-257 melanoma.
Assay [11] deals with U251 CNS.
Assay [12] deals with HT29 colon.
The test system of assay [13] is SK-MEL-28 melanoma.
For assay [14], the system named is MDA-N.
In assay [15] the test system is HOP-62 NSCLC.
Assay [16] deals with HOP-92 NSCLC.
Assay [17] deals with SNB-19 CNS.
Assay [18] concerns ACHN renal.
In assay [19] the test system is MALME-3M melanoma.
For assay [20], the system named is EKVX NSCLC.

`COC(=O)c1cc2c(cc1CC(Cc1ccc3c(c1)CCCC3)C(=O)OC)CCCC2` (stereo unspecified): the TGI in assay [1] is greater than 100 µM; in assay [2], greater than 100 µM; in assay [3] it was greater than 100 µM; in assay [4] it was greater than 100 µM; in assay [5], 29.7 µM; in assay [6] it was greater than 100 µM. Also, the TGI is greater than 100 µM in assay [7]; greater than 100 µM in assay [8]; 93.8 µM in assay [9]; greater than 100 µM in assay [10]; greater than 100 µM in [11]; greater than 100 µM in [12]. In addition, the TGI in [13], in assay [14], in assay [15], in assay [16], in assay [17] and in assay [18] was greater than 100 µM in each case. In [19], this compound showed a TGI greater than 100 µM.

Take `C=CCCC1(CC(Sc2ccccc2)P(=O)(c2ccccc2)c2ccccc2)OCCO1` (stereo unspecified): the TGI in assay [1], in assay [2], in assay [3], in [4], in assay [5] and in assay [6] was greater than 10 µM in each case. The TGI in [20], in [7], in assay [8], in assay [9], in [10] and in assay [11] was greater than 10 µM throughout. Moreover, the TGI in assay [12], in [13], in [14], in assay [15], in assay [17] and in [18] was greater than 10 µM in each case. In assay [19], this compound came in with a TGI greater than 10 µM.

With `CCOC(=O)c1cc2c3ccn(Cc4ccccc4)c3c3c(C)[nH]oc3c2n1`, the TGI in [1], in assay [2], in assay [4], in [5], in assay [6] and in assay [20] was greater than 100 µM each time. In addition, the TGI in [7], in assay [8], in assay [9], in [10], in assay [11] and in assay [13] was greater than 100 µM throughout. For the same compound, the TGI in assay [14], in assay [15], in assay [17], in assay [18] and in [19] was greater than 100 µM in each case.

As to `CCOc1ncn(-c2ccc(NC(=S)NC3OC(CO)C(O)C(O)C3O)cc2)n1` (stereo unspecified), the TGI in [2], in [3], in [5], in [6], in [20] and in [7] was greater than 100 µM throughout. For the same compound, the TGI in [8], in assay [9], in assay [10], in [11], in assay [12] and in assay [13] was greater than 100 µM in each case. Also, the TGI in [14], in assay [15], in assay [16] and in [17] was greater than 100 µM in each case.

On to `CCOC(=O)c1cn2c(n1)sc1cc(Cl)ccc12`, for which the TGI in assay [1], in [2], in assay [3], in assay [4], in assay [6] and in assay [20] was greater than 100 µM throughout. The TGI in assay [7] is greater than 100 µM; in assay [8], greater than 100 µM; in [9], greater than 100 µM; in [10] it was greater than 100 µM; in [11] it was 60.7 µM; in assay [12], greater than 100 µM. For the same compound, the TGI in [13] is greater than 100 µM; in assay [14] it was 12.6 µM; in assay [15], 61.6 µM; in assay [16], greater than 100 µM; in assay [17], 83.2 µM; in assay [18], greater than 100 µM. The compound also had a TGI in assay [19] of 99.1 µM.

For the compound `COc1cc(-c2nc3ccccn3c2/N=C/c2cc(Br)cc(Br)c2O)ccc1O`, the TGI in assay [1] is 42.2 µM; in assay [2], 53.3 µM; in [3] it was 59 µM; in assay [5] it was 46.4 µM; in assay [6] it was greater than 100 µM; in [20] it was 54.5 µM. Also, the TGI is 53.8 µM in assay [7]; 40.6 µM in [8]; greater than 100 µM in [9]; 75.2 µM in assay [10]; 31.9 µM in [11]; 57.1 µM in assay [12]. The TGI in assay [13] is 40.7 µM; in assay [14], 59 µM; in assay [15], 52.5 µM; in assay [16], 50.8 µM; in assay [17] it was 75.6 µM; in assay [18], greater than 100 µM. Moreover, the TGI in [19] turned out to be 57.8 µM.

Turning to `Clc1ccc(-c2cc3nc4ccccc4nc3o2)cc1`, the TGI in assay [1], in assay [2], in assay [3], in assay [4], in assay [5] and in [6] was greater than 100 µM throughout. For the same compound, the TGI in assay [20], in [7], in assay [9], in [10], in assay [11] and in [12] was greater than 100 µM in each case. Also, the TGI in assay [13], in [14], in [16], in assay [17], in [18] and in assay [19] was greater than 100 µM throughout.

In the case of `NNC(=S)N/N=C(/C(=O)Nc1ccc(Cl)c(Cl)c1)C(C1OC(=O)c2ccccc21)[N+](=O)[O-]` (stereo unspecified), the TGI in [1], in assay [2], in assay [3], in assay [4], in assay [5] and in assay [6] was greater than 100 µM each time. Also, the TGI in assay [20], in [7], in [8], in assay [9], in assay [10] and in [11] was greater than 100 µM in each case. For the same compound, the TGI in assay [12], in [13], in assay [14], in [15], in assay [16] and in assay [18] was greater than 100 µM each time. Besides, the TGI in assay [19] was greater than 100 µM.
